3 molecules from US7981873B1, “Use within transplantation surgery” (Corline Systems AB, priority 2000, dated 2011) can be followed below.

What all share (format): cell-based
For assay [1], the system named is platelets in platelet rich plasma (PRP). The assay can be described thus: Islet-induced platelet aggregation in platelet rich plasma (aggregometer). To be noted: agent added to PRP before islets. The protocol: Platelets in platelet rich plasma (PRP) and gel filtered platelets were tested in an aggregometer. Islets were added to PRP and thereafter analysed in the aggregometer. It was shown that the islets induced aggregation of the platelets (FIG. 1) and that platelets number in the sample were reduced from 375×10^9 to 236×10^9. If purified platelets without plasma proteins were used in combination with islets no aggregation and reduction in the platelet count were observed. In attempts to identify the mechanism behind the induced aggregation, an RGDS tetrapeptide to inhibit integrin binding and a monoclonal antibody against Fc receptors on platelets were used.

Assay [2] concerns human islets in ABO-compatible fresh human blood. The assay can be described thus: Tubing loop model: human islet perifusion with ABO-compatible fresh human blood. Further details: TAT: unit not given here. To be noted: after 60 min human islet perifusion, Mean ± SE(M). The protocol:
(§1) All the in vitro experiments for studies of islets contacting whole blood were performed in a tubing loop model. The experimental model is a modification of a model for testing biomaterials that has previously been described (J. Clin. Immunol. 16, 223-230 (1996)). Tubings made of polyvinylchloride (PVC, i.d.=6.3 mm, length=300 mm) were modified with immobilized heparin according to a method developed by Corline Systems AB (Uppsala, Sweden) as disclosed in international patent application no WO93/05793. Briefly, the polymer surface is modified with a high molecular weight amine compound to add primary amine groups to the surface. A soluble conjugate prepared by covalent binding of approximately 60 mol of heparin per mol of a straight-chained polyallylamine is irreversibly bonded onto the amine surface of the tubings. This procedure results in a total surface concentration of heparin of approximately 0.5 μg/cm^2. By using such heparin modified tubings it is possible to incubate the tubings with non-anticoagulated fresh human blood in a rocking device at 37° C. for one hour with only moderate activation of blood (c.f. control column in Table 1 A and 1 B below). Unmodified tubings will invariably induce complete clotting at these experimental conditions. Addition of human islets or porcine adult or fetal islets lead to some remarkable observations. Complete clotting invariably occurred with a total loss of platelets, a sharp increase in the formation of TAT and a very significant increase in the markers of the early contact phase (FXIIa and FXIa) of coagulation (C.f. Table 1 A and 1 B).
(§2) Sixty ml of non-anticoagulated blood was collected from healthy blood donors using heparin-coated equipment. U-shaped tubings with a total volume of nine ml were filled with eight ml of blood immediately followed by addition of isolated human islets or porcine adult or porcine fetal islets (500 IEQ). The tubings were then closed into loops using connectors of titanium furnished with immobilised heparin. The tubing loops were placed vertically in a rocking device and the complete apparatus was placed in an incubator at 37° C. for up to sixty minutes. At the end of the rocking period blood was collected in EDTA and the number of cells were counted in a automatic cell counter. The blood samples were then centrifuged at 4° C. (3290×g, 20 min) and EDTA plasma was collected and immediately put at −70° C. Islets retrieved after blood perifusion were prepared for immunohistochemistry.

Assay [3] concerns adult porcine islets in fresh human blood. The assay is described as follows: Tubing loop model: adult porcine islet perifusion with fresh human blood. Further details: FNIIa-AT / TAT: unit not given here. To be noted: for Platelets: blood supplemented with additive, Mean SE(M); for TAT: thrombin-antithrombin. The protocol: as §1, §2
Where [4] appears, read: after 60 min adult porcine islet perifusion.

On to RGDS [RGDS peptide], for which the “consumption of platelets when islets were added to PRP” value in assay [1] (FIG. 2) is listed as “totally abolished”. Besides, the “aggregation of platelets when islets were added to PRP” value in assay [1] (FIG. 2, FIG. 3) is recorded as “totally abolished”.

In the case of heparin, the Platelets in assay [2] (blood supplemented with additive) was 114 ± 17 ×10^9. In assay [2], the C3a came out at 565 ± 143.6 ng/mL, the C5b-9 amounted to 147 ± 39.6 AU/mL, the FXIIa-AT is 5.4e-06 ± 1.7e-06 M and the FXIa-AT amounted to 3.4e-07 ± 1.2e-07 M. For the same molecule, in assay [2], the Lymph. is 1.60 ± 0.20 ×10^9, the Mono. is on record as 0.28 ± 0.06 ×10^9 and the Neutra. was 2.56 ± 0.43 ×10^9. The TAT in assay [2] (thrombin-antithrombin) is given as 4467 ± 2285. Further, in assay [3] (setting [4]), the C3a is listed as 486 ± 139 ng/mL, the C5b-9 stood at 82 ± 22 AU/mL, the FXIa-AT came to 0.53 ± 0.26 µM and the Lymphcytes is 1.88 ± 0.11 ×10^9. Moreover, in assay [3] (setting [4]), the Monocytes was 0.35 ± 0.05 ×10^9, the Neutrophils is listed as 3.00 ± 0.19 ×10^9, the Platelets is 145 ± 13.0 ×10^9 and the TAT is 505 ± 162. For the same molecule, the clotting entry in assay [3] (in words, summary of Tables 1A and 1B) is reported as “prevented clotting”. Besides, the “platelet count and generation of TAT” value in assay [3] (in words, summary of Tables 1A and 1B, listed as Soluble heparin) is reported as “remarkable improvement”. Further, the “platelet count and generation of TAT” value in assay [3] (in words, summary of Tables 1A and 1B, listed as soluble heparin) was “remarkable improvement in preservation of the number of platelets and reduced generation of TAT”.

B1: C1-INA: the complement inhibitor C1 inactivator (C1-INA) (protein, UniProt P05155 23-500, looked up)
Plasma protease C1 inhibitor: NPNATSSSSQDPESLQDRGEGKVATTVISKMLFVEPILEVSSLPTTNSTTNSATKITANTTDEPTTQPTTEPTTQPTIQPTQPTTQLPTDSPTQPTTGSFCPGPVTLCSDLESHSTEAVLGDALVDFSLKLYHAFSAMKKVETNMAFSPFSIASLLTQVLLGAGENTKTNLESILSYPKDFTCVHQALKGFTTKGVTSVSQIFHSPDLAIRDTFVNASRTLYSSSPRVLSNNSDANLELINTWVAKNTNNKISRLLDSLPSDTRLVLLNAIYLSAKWKTTFDPKKTRMEPFHFKNSVIKVPMMNSKKYPVAHFIDQTLKAKVGQLQLSHNLSLVILVPQNLKHRLEDMEQALSPSVFKAIMEKLEMSKFQPTLLTLPRIKVTTSQDMLSIMEKLEFFDFSYDLNLCGLTEDPDLQVSAMQHQTVLELTETGVEAAAASAISVARTLLVFEVQQPFLFVLWDQQHKFPVFMGRVYDPRA
For B1, in assay [3] (setting [4]), the C3a is 1094 ± 78 ng/mL, the C5b-9 is on record as 183 ± 29 AU/mL, the FNIIa-AT was 19.65 ± 0.45 and the FXIa-AT is given as 2.95 ± 0.15. For the same molecule, in assay [3] (setting [4]), the Lymphcytes was 1.23 ± 0.38 ×10^9, the Monocytes is 0.15 ± 0.01 ×10^9, the Neutrophils is on record as 0.41 ± 0.13 ×10^9 and the Platelets is reported as 4 ± 0 ×10^9. In assay [3] (setting [4]), the TAT worked out at 30250 ± 3450. Also, in assay [3] (in words, summary of Table 1B), the complement activation result is reported as “reduced complement activation” and the “effect on the coagulation parameters” value is “no detectable effect”.
